Data: patent US7592328B2, “Natural cyclodextrin complexes” (Pedipharm Oy, priority 2002, dated 2009)

Tests used:
[1] = dissolution of CBD from a gelatine capsule in 2% RM-β-CD dissolution media; type: physicochemical; settings: gelatine capsule with 1.0 mg pure CBD and 99 mg lactose, pH 6.6, n=6
[2] = oral administration, depending on the drug vehicle employed; cited from earlier work
[3] = 40% solution of HP-β-CD; cited from earlier work

SMILES | time in which CBD is not fully dissolved [1] [h] | bioavailability [2] | THC solution concentration obtained [3] [mg/mL]
C=C(C)[C@@H]1CCC(C)=C[C@H]1c1c(O)cc(CCCCC)cc1O [CBD, cannabidiol] | > 3 |  | 
CCCCCc1cc(O)c2c(c1)OC(C)(C)[C@@H]1CCC(C)=C[C@@H]21 [THC, Δ^9-tetrahydrocannabinol] |  | 6-20% | 1
